# Test results reported in PubChem BioAssay (NCI).
#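 Dose response: 5 concentrations. Exposure: 48 h. Format: 96-well plates. Endpoint: linear interpolation; highest concentration if not reached. Here, GI50 denotes the concentration required for 50% inhibition of growth. TGI: concentration producing complete growth inhibition.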
# Experiments:
# Assay in all cases: DTP human tumour cell line panel, 48 h
# A498 renal = test system: A498 renal
# HOP-92 NSCLC = test system: HOP-92 NSCLC
# SN12C renal = test system: SN12C renal
# NCI/ADR-RES ovarian = test system: NCI/ADR-RES ovarian
# OVCAR-5 ovarian = test system: OVCAR-5 ovarian
# CAKI-1 renal = test system: CAKI-1 renal
# UACC-62 melanoma = test system: UACC-62 melanoma
# NCI-H460 lung = test system: NCI-H460 lung
# SNB-75 CNS = test system: SNB-75 CNS
# MALME-3M melanoma = test system: MALME-3M melanoma
# RPMI-8226 leukemia = test system: RPMI-8226 leukemia
# SK-MEL-5 melanoma = test system: SK-MEL-5 melanoma
# KM12 colon = test system: KM12 colon
# NCI-H522 lung = test system: NCI-H522 lung
# SW-620 colon = test system: SW-620 colon
# UO-31 renal = test system: UO-31 renal
# SK-MEL-2 melanoma = test system: SK-MEL-2 melanoma
# SF-539 CNS = test system: SF-539 CNS
# HT29 colon = test system: HT29 colon
# DU-145 prostate = test system: DU-145 prostate
# MDA-MB-231 breast = test system: MDA-MB-231 breast
# ACHN renal = test system: ACHN renal
# PC-3 prostate = test system: PC-3 prostate
# TK-10 renal = test system: TK-10 renal
# MOLT-4 leukemia = test system: MOLT-4 leukemia
smiles,measurement,setting,value
COc1cc(/C=N/NC(=O)c2cn(C3CC3)c3c(OC)c(N4CC5CCCNC5C4)c(F)cc3c2=O)ccc1O (stereo not given),GI50,A498 renal,1760 nM
same,TGI,A498 renal,3180 nM
same,GI50,HOP-92 NSCLC,1660 nM
same,TGI,HOP-92 NSCLC,3160 nM
same,GI50,SN12C renal,1830 nM
same,TGI,SN12C renal,3460 nM
same,GI50,NCI/ADR-RES ovarian,58800 nM
same,TGI,NCI/ADR-RES ovarian,> 100000 nM
same,GI50,OVCAR-5 ovarian,1650 nM
same,TGI,OVCAR-5 ovarian,3050 nM
same,GI50,CAKI-1 renal,1670 nM
same,TGI,CAKI-1 renal,3120 nM
same,GI50,UACC-62 melanoma,1720 nM
same,TGI,UACC-62 melanoma,3280 nM
same,GI50,NCI-H460 lung,1870 nM
same,TGI,NCI-H460 lung,3500 nM
same,GI50,SNB-75 CNS,1430 nM
same,TGI,SNB-75 CNS,2810 nM
same,GI50,MALME-3M melanoma,1690 nM
same,TGI,MALME-3M melanoma,3210 nM
same,GI50,RPMI-8226 leukemia,1880 nM
same,TGI,RPMI-8226 leukemia,4380 nM
same,GI50,SK-MEL-5 melanoma,17600 nM
same,TGI,SK-MEL-5 melanoma,41300 nM
same,GI50,KM12 colon,1670 nM
same,TGI,KM12 colon,3110 nM
same,GI50,NCI-H522 lung,1790 nM
same,TGI,NCI-H522 lung,3400 nM
same,GI50,SW-620 colon,1730 nM
same,TGI,SW-620 colon,3270 nM
same,GI50,UO-31 renal,1530 nM
same,TGI,UO-31 renal,2930 nM
same,GI50,SK-MEL-2 melanoma,1850 nM
same,TGI,SK-MEL-2 melanoma,3680 nM
same,GI50,SF-539 CNS,1730 nM
same,TGI,SF-539 CNS,3210 nM
same,GI50,HT29 colon,1830 nM
same,TGI,HT29 colon,3380 nM
same,GI50,DU-145 prostate,1860 nM
same,TGI,DU-145 prostate,3310 nM
same,GI50,MDA-MB-231 breast,1690 nM
same,TGI,MDA-MB-231 breast,3220 nM
same,GI50,ACHN renal,1700 nM
same,TGI,ACHN renal,3090 nM
same,GI50,PC-3 prostate,1740 nM
same,TGI,PC-3 prostate,3280 nM
same,GI50,TK-10 renal,1680 nM
same,TGI,TK-10 renal,3100 nM
same,GI50,MOLT-4 leukemia,2300 nM
same,TGI,MOLT-4 leukemia,5330 nM
